PubChem BioAssay (NCI)
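Protocol summary: plate cells (96-well), add compound at 5 concentrations, incubate 48 h, interpolate endpoints linearly. Abbreviation: GI50, concentration required for 50% inhibition of growth. TGI denotes the concentration required for complete inhibition of growth.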

Tests used:
Test in all cases: NCI anticancer screen, dose series, 48 h
A549 NSCLC = test system: A549 NSCLC
EKVX NSCLC = test system: EKVX NSCLC
IGROV1 ovarian = test system: IGROV1 ovarian
KM12 colon = test system: KM12 colon
MDA-MB-435 = test system: MDA-MB-435
NCI-H522 lung = test system: NCI-H522 lung
OVCAR-8 ovarian = test system: OVCAR-8 ovarian
SF-268 CNS = test system: SF-268 CNS
UACC-257 melanoma = test system: UACC-257 melanoma
UACC-62 melanoma = test system: UACC-62 melanoma

SMILES | TGI (A549 NSCLC) [µM] | TGI (EKVX NSCLC) [µM] | TGI (IGROV1 ovarian) [µM] | TGI (KM12 colon) [µM] | TGI (MDA-MB-435) [µM] | TGI (NCI-H522 lung) [µM] | TGI (OVCAR-8 ovarian) [µM] | TGI (SF-268 CNS) [µM] | TGI (UACC-257 melanoma) [µM] | TGI (UACC-62 melanoma) [µM] | GI50 (A549 NSCLC) [µM] | GI50 (EKVX NSCLC) [µM] | GI50 (IGROV1 ovarian) [µM] | GI50 (KM12 colon) [µM] | GI50 (NCI-H522 lung) [µM] | GI50 (OVCAR-8 ovarian) [µM] | GI50 (SF-268 CNS) [µM] | GI50 (UACC-257 melanoma) [µM] | GI50 (UACC-62 melanoma) [µM]
Oc1ccc([I+]c2ccccc2)cc1O | 65.5 | > 100 | > 100 | 70.7 | 66.2 | > 100 | > 100 | > 100 | > 100 |  |  |  |  |  |  |  |  |  | 
COc1cccc2c(=O)oc(-c3ccc(C(C)(C)C)cc3)nc12 | > 100 | > 100 | > 100 | > 100 | > 100 | 89.6 | > 100 | > 100 | > 100 | > 100 |  |  |  |  |  |  |  |  | 
CCOC(=O)c1cn2c(nc1=O)N[C@H]1CCCC[C@@H]12 | > 100 | > 100 | > 100 | > 100 | > 100 | > 100 | > 100 | > 100 | > 100 | > 100 |  |  |  |  |  |  |  |  | 
CC1=C[C@@H]2Cc3nc4cc(Cl)ccc4c(N)c3[C@H](C1)C2 | 34.9 | 13.3 | 8.14 | 21.6 | 25.8 |  | 38.9 | 25.8 | 4.9 | 31.5 |  |  |  |  |  |  |  |  | 
Cc1ccc2c(c1)C(=O)C1(Cc3ccccc3C1=O)C2 (centres undefined) | > 100 | > 100 | > 100 | > 100 | > 100 | > 100 | > 100 | > 100 | > 100 | > 100 |  |  |  |  |  |  |  |  | 
O=C(O)CCC(=O)OC1N=C(c2ccccc2Cl)c2cc([N+](=O)[O-])ccc2NC1=O (centres undefined) | > 100 | > 100 | > 100 | > 100 | > 100 | > 100 | > 100 | > 100 | > 100 | > 100 |  |  |  |  |  |  |  |  | 
CCOC(=O)c1nc2c(nc1C(=O)OCC)C(=O)c1ccccc1C2=O | 9.47 | 3.5 | 23.8 | 14.7 | 0.804 | 4.23 | 6.56 | 7.62 | 1.28 | 0.956 |  |  |  |  |  |  |  |  | 
C=CCSc1nnc2cc(CN3CCCC3)c(-c3ccc(Cl)cc3)nn12 | > 100 | 43.8 | 44.3 | 64.7 | 41.7 | 42.6 | 57.1 | 46 | 32.3 | 27.7 |  |  |  |  |  |  |  |  | 
CS(=O)(=O)OCC(CCl)(CCl)CCl | > 100 |  |  | > 100 | > 100 | > 100 | > 100 | > 100 | > 100 |  |  |  |  |  |  |  |  |  | 
CC1=NN(c2cccc(Cl)c2)C2(C1=C/C=C/c1ccccc1)C(Cl)C(=O)N2c1nc2ccccc2s1 (centres undefined) | > 100 | > 100 | > 100 | > 67.5 | > 58.4 | 47.4 | 62.2 | 56.1 | > 100 | > 100 |  |  |  |  |  |  |  |  | 
CCC1(CC)C(=O)NN(C(=O)c2ccccc2)C1=O | > 100 | > 100 | > 100 | > 100 | > 100 | > 100 | > 100 | > 100 | > 100 | > 100 |  |  |  |  |  |  |  |  | 
CCCCCCOc1ccc(C(=O)NOC)cc1 | > 100 | > 100 | > 100 | > 100 | > 100 | > 100 | > 100 | > 100 | > 100 | > 100 |  |  |  |  |  |  |  |  | 
Cc1c(S(=O)(=O)c2ccccc2)c(N)n(CCN(C)C)c1C | > 100 | > 100 | > 100 | > 100 | > 100 | > 100 | > 100 | > 100 | > 100 | > 100 |  |  |  |  |  |  |  |  | 
CC1=NN(c2cccc(Cl)c2)C2(SCC(=O)N2c2nc3ccccc3s2)/C1=C\c1ccccc1O (centres undefined) |  | > 100 | 80.9 | 45.1 | 60.2 | 42.4 | 42 | 64.7 | > 100 |  |  |  |  |  |  |  |  |  | 
CC1CCC(C(=O)O)(C(Br)C(=O)O)CC1 (centres undefined) | > 100 | > 100 | > 100 | > 100 | > 100 |  | > 100 |  | > 100 | > 100 |  |  |  |  |  |  |  |  | 
Cc1nc(N)c(N2CCN([N+](=O)[O-])CC2)c(=O)[nH]1 | > 100 | > 100 |  | > 100 | > 100 | > 100 | > 100 | > 100 | > 100 |  |  |  |  |  |  |  |  |  | 
CC(=N/N=C/c1ccccn1)/C(C)=N/N=C(C)/C(C)=N/N=C(C)/C(C)=N/N=C(C)/C(C)=N\N=C\c1ccccn1 | > 100 | > 100 | > 100 | > 100 | > 100 | > 100 | > 100 | > 100 | > 100 |  |  |  |  |  |  |  |  |  | 
O=C1c2ccccc2-c2c1c(-c1ccc(F)cc1)nc1ccc3ccccc3c21 | > 100 | > 100 |  | > 100 | > 100 |  | > 100 | > 100 | > 100 | > 100 |  |  |  |  |  |  |  |  | 
CCOC(=O)c1ccc(NCC#CCN2CCOCC2)cc1 | > 100 | > 100 | > 100 | > 100 | > 100 |  |  | > 100 |  | > 100 |  |  |  |  |  |  |  |  | 
CO[C@H]1/C=C(/C)CCC[C@H](C)[C@H](O)[C@@H](C)C(=O)C(C)(C)[C@@H](O)CC(=O)O[C@@H]1/C(C)=C/c1csc(C)n1 | > 100 | > 100 | > 100 | > 100 |  | 0.0224 | > 100 | > 100 | > 100 | > 100 | 0.0219 | 0.0432 | 0.0241 | < 0.0129 | < 0.01 | 0.0277 | 0.0346 | 0.0452 | 0.0287
CSc1nsc(-c2ccccc2)[s+]1 | > 100 | > 100 | > 100 | > 100 |  | > 100 | > 100 | > 100 | > 100 | > 100 |  |  |  |  |  |  |  |  | 
CCCCC(C(=O)NCCNC(=O)CCC(=O)N(C)O)C(=O)NCCNC(=O)CCC(=O)N(C)O | > 100 | > 100 | > 100 | > 100 | > 100 | > 100 | > 100 |  | > 100 | > 100 |  |  |  |  |  |  |  |  | 
